Experimental data taken from patent US20230102554A1 (GB002, INC., priority 2019, published 2023).

Legend:
[1] = molecular target: T1, Human PDGFRα, cytoplasmic domain (GST-PDGFRα) (Homo sapiens, UniProt P16234); test: Human PDGFRα biochemical inhibition assay (off-chip Mobility Shift Assay)
T1 construct: made in house

[2] = molecular target: T2, Human PDGFRβ, cytoplasmic domain (GST-PDGFRβ) (Homo sapiens, UniProt P09619); test: Human PDGFRβ biochemical inhibition assay (off-chip Mobility Shift Assay)
T2 construct: made in house
Method in brief: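 GST-tagged cytoplasmic domain (aa 557-1106) from baculovirus was incubated 1 h at room temperature with compound, CSKtide, ATP at Km and Mg²⁺ in HEPES buffer, pH 7.5. Phosphorylated and unphosphorylated peptide were separated by off-chip mobility shift, and the product ratio P/(P+S) gave percent inhibition.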

T2 sequence (P09619 with tags, fused parts or gaps): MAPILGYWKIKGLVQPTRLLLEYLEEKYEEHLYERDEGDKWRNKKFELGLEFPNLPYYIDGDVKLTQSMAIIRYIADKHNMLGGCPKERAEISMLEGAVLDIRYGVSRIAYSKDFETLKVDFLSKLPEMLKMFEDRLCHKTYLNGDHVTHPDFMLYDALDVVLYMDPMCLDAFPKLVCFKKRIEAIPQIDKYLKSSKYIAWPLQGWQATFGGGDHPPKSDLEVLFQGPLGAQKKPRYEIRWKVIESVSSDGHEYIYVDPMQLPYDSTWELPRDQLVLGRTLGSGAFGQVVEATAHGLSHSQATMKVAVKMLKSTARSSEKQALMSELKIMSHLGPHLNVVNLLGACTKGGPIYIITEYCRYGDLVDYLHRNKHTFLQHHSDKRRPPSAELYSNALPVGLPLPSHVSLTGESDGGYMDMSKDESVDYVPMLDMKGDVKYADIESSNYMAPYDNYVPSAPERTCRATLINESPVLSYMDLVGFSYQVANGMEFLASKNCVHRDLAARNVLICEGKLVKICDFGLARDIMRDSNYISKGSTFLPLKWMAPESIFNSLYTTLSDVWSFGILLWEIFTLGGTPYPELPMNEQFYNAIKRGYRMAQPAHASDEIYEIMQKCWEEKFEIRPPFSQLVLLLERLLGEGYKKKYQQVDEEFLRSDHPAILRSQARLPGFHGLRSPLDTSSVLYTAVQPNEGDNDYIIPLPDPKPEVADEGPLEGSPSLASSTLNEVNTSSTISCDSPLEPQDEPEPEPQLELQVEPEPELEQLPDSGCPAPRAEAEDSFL
T1 sequence (P16234 550-1089 T674I): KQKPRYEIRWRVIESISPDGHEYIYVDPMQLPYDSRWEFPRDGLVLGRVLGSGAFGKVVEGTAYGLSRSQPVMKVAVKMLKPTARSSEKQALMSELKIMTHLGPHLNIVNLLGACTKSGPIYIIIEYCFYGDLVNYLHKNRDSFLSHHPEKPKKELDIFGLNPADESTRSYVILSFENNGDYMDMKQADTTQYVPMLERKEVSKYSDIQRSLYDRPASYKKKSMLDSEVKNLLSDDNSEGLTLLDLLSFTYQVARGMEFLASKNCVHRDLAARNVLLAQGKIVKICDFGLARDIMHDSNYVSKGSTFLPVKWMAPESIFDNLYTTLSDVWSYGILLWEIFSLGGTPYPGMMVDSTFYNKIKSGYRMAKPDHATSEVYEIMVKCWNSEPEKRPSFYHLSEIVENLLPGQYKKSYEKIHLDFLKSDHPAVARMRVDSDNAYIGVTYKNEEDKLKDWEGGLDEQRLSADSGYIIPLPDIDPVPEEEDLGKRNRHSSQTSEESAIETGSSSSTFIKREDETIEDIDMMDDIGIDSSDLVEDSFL

IC50 [1] [µM]	IC50 [2] [µM]	Compound
< 0.3	< 0.3	CCn1cc2ncc(N[C@@H](C)c3cc(NC(=O)Cc4cncc(C(F)(F)F)c4)ccc3C)nc2n1 [Compound 692, (S)-N-(3-(1-((2-ethyl-2H-pyrazolo[3,4-b]pyrazin-6-yl)amino)ethyl)-4-methylphenyl)-2-(5-(trifluoromethyl)pyridin-3-yl)acetamide]
< 0.3	< 0.3	CCn1cc(C(=O)Nc2cccc([C@H](C)Nc3cnc4[nH]cc(C)c4n3)c2)cn1 [Compound 574, (S)-1-ethyl-N-(3-(1-((7-methyl-5H-pyrrolo[2,3-b]pyrazin-2-yl)amino)ethyl)phenyl)-1H-pyrazole-4-carboxamide]
< 0.3	< 0.3	Cc1cncc(C(=O)Nc2cccc([C@H](C)Nc3cnc4ccn(C)c4n3)c2)c1 [Compound 1, (S)-5-methyl-N-(3-(1-((5-methyl-5H-pyrrolo[2,3-b]pyrazin-3-yl)amino)ethyl)phenyl)nicotinamide]
< 0.3	≥ 1	CCn1cc2ncc(N[C@@H](C)c3cc(NC(=O)Cc4ccc(C)cn4)c(F)cc3F)nc2n1 [Compound 724, (S)-N-(5-(1-((2-ethyl-2H-pyrazolo[3,4-b]pyrazin-6-yl)amino)ethyl)-2,4-difluorophenyl)-2-(5-methylpyridin-2-yl)acetamide]
< 0.3	< 0.3	CCn1cc2ncc(N[C@@H](C)c3cc(NC(=O)c4ccc(CN5CCOCC5)c(C)c4)ccc3F)nc2n1 [Compound 446, (S)-N-(3-(1-((2-ethyl-2H-pyrazolo[3,4-b]pyrazin-6-yl)amino)ethyl)-4-fluorophenyl)-3-methyl-4-(morpholinomethyl) benzamide]
< 0.3	0.3 to 1	CCn1cc2ncc(N[C@@H](C)c3cccc(NC(=O)c4ccc(NC5CC5)nc4)c3)nc2n1 [Compound 385, (S)-6-(cyclopropylamino)-N-(3-(1-((2-ethyl-2H-pyrazolo[3,4-b]pyrazin-6-yl)amino)ethyl)phenyl)nicotinamide]
< 0.3	< 0.3	Cc1n[nH]c2ncc(N[C@@H](C)c3cccc(NC(=O)c4ccc(C(F)(F)F)nc4)c3)nc12 [Compound 534, (S)-N-(3-(1-((3-methyl-1H-pyrazolo[3,4-b]pyrazin-5-yl)amino)ethyl)phenyl)-6-(trifluoromethyl)nicotinamide]
< 0.3	0.3 to 1	CCn1cc2ncc(N[C@@H](C)c3cccc(NC(=O)c4cnc(Br)s4)c3)nc2n1 [Compound 324, (S)-2-bromo-N-(3-(1-((2-ethyl-2H-pyrazolo[3,4-b]pyrazin-6-yl)amino)ethyl)phenyl)thiazole-5-carboxamide]
< 0.3	< 0.3	CCn1cc2ncc(N[C@@H](C)c3cccc(NC(=O)c4ccc(C5CC5)nc4)c3)nc2n1 [Compound 283, (S)-6-cyclopropyl-N-(3-(1-((2-ethyl-2H-pyrazolo[3,4-b]pyrazin-6-yl)amino)ethyl)phenyl)nicotinamide]
< 0.3	< 0.3	CCNc1ncc(C(=O)Nc2cccc([C@H](C)Nc3cnc4cnn(C)c4n3)c2)cc1C [Compound 194, (S)-6-(ethylamino)-5-methyl-N-(3-(1-((1-methyl-1H-pyrazolo[3,4-b]pyrazin-6-yl)amino)ethyl)phenyl) nicotinamide]
< 0.3	< 0.3	CNc1ncc(C(=O)Nc2cccc([C@H](C)Nc3cnc4[nH]cc(-c5cnn(C)c5)c4n3)c2)cc1C [Compound 587, (S)-5-methyl-N-(3-(1-((7-(1-methyl-1H-pyrazol-4-yl)-5H-pyrrolo[2,3-b]pyrazin-2-yl)amino)ethyl)phenyl)-6-(methylamino)nicotinamide]
< 0.3	< 0.3	CCn1cc2ncc(N[C@@H](C)c3cccc(NC(=O)c4ccc(C(F)(F)F)cc4)c3)nc2n1 [Compound 453, (S)-N-(3-(1-((2-ethyl-2H-pyrazolo[3,4-b]pyrazin-6-yl)amino)ethyl)phenyl)-4-(trifluoromethyl)benzamide]
< 0.3	< 0.3	CCn1cc2ncc(N[C@@H](C)c3cccc(NC(=O)c4cnc(C(C)C)s4)c3)nc2n1 [Compound 349, (S)-N-(3-(1-((2-ethyl-2H-pyrazolo[3,4-b]pyrazin-6-yl)amino)ethyl)phenyl)-2-isopropylthiazole-5-carboxamide]
< 0.3	< 0.3	CCn1cc2ncc(N[C@@H](C)c3cc(NC(=O)c4cnc(NC5CC5)c(C)c4)ccc3C)nc2n1 [Compound 515, (S)-6-(cyclopropylamino)-N-(3-(1-((2-ethyl-2H-pyrazolo[3,4-b]pyrazin-6-yl)amino)ethyl)-4-methylphenyl)-5-methylnicotinamide]
< 0.3	< 0.3	Cc1n[nH]c2ncc(N[C@@H](C)c3cccc(NC(=O)c4cnn(C(F)F)c4)c3)nc12 [Compound 546, (S)-1-(difluoromethyl)-N-(3-(1-((3-methyl-1H-pyrazolo[3,4-b]pyrazin-5-yl)amino)ethyl)phenyl)-1H-pyrazole-4-carboxamide]
< 0.3	< 0.3	CCn1cc2ncc(N[C@@H](C)c3cccc(NC(=O)c4cnc(C(N)=O)s4)c3)nc2n1 [Compound 365, (S)-N5-(3-(1-((2-ethyl-2H-pyrazolo[3,4-b]pyrazin-6-yl)amino)ethyl)phenyl)thiazole-2,5-dicarboxamide]
< 0.3	< 0.3	CC(C)n1ccc(C(=O)Nc2cccc([C@H](C)Nc3cnc4cnn(C)c4n3)c2)n1 [Compound 156, (S)-1-isopropyl-N-(3-(1-((1-methyl-1H-pyrazolo[3,4-b]pyrazin-6-yl)amino)ethyl)phenyl)-1H-pyrazole-3-carboxamide]
< 0.3	< 0.3	CC(C)c1cc(C(=O)Nc2cccc([C@H](C)Nc3cnc4cnn(C)c4n3)c2)n(C)n1 [Compound 165, (S)-3-isopropyl-1-methyl-N-(3-(1-((1-methyl-1H-pyrazolo[3,4-6]pyrazin-6-yl)amino)ethyl)phenyl)-1H-pyrazole-5-carboxamide]
< 0.3	< 0.3	CC(C)c1ccc(C(=O)Nc2cccc([C@H](C)Nc3cnc4cnn(C)c4n3)c2)cn1 [Compound 204, (S)-6-isopropyl-N-(3-(1-((1-methyl-1H-pyrazolo[3,4-b]pyrazin-6-yl)amino)ethyl)phenyl)nicotinamide]
< 0.3	< 0.3	Cc1c[nH]c2ncc(N[C@@H](C)c3cccc(NC(=O)c4ccc(C(F)F)s4)c3)nc12 [Compound 560, (S)-5-(difluoromethyl)-N-(3-(1-((7-methyl-5H-pyrrolo[2,3-b]pyrazin-2-yl)amino)ethyl)phenyl)thiophene-2-carboxamide]
< 0.3	< 0.3	CCn1cc2ncc(N[C@@H](C)c3cccc(NC(=O)c4cnc(C5CC5)c(C)c4)c3)nc2n1 [Compound 321, (S)-6-cyclopropyl-N-(3-(1-((2-ethyl-2H-pyrazolo[3,4-b]pyrazin-6-yl)amino)ethyl)phenyl)-5-methylnicotinamide]
< 0.3	< 0.3	Cc1n[nH]c2ncc(N[C@@H](C)c3cccc(NC(=O)c4cncc(Cl)c4)c3)nc12 [Compound 533, (S)-5-chloro-N-(3-(1-((3-methyl-1H-pyrazolo[3,4-b]pyrazin-5-yl)amino)ethyl)phenyl)nicotinamide]
< 0.3	< 0.3	Cc1cncc(C(=O)Nc2cccc([C@H](C)Nc3cnc4ccn(-c5cnn(C)c5)c4n3)c2)c1 [Compound 86, (S)-5-methyl-N-(3-(1-((5-(1-methyl-1H-pyrazol-4-yl)-5H-pyrrolo[2,3-b]pyrazin-3-yl)amino)ethyl)phenyl) nicotinamide]
< 0.3	< 0.3	COC(=O)c1ccc(C(=O)Nc2cccc([C@H](C)Nc3cnc4cnn(C)c4n3)c2)cc1OC [Compound 261, methyl (S)-2-methoxy-4-((3-(1-((1-methyl-1H-pyrazolo[3,4-b]pyrazin-6-yl)amino)ethyl)phenyl)carbamoyl)benzoate]
< 0.3	< 0.3	CCn1cc2ncc(N[C@@H](C)c3cccc(NC(=O)c4cnc(C(F)F)s4)c3)nc2n1 [Compound 319, (S)-2-(difluoromethyl)-N-(3-(1-((2-ethyl-2H-pyrazolo[3,4-b]pyrazin-6-yl)amino)ethyl)phenyl)thiazole-5-carboxamide]
< 0.3	< 0.3	Cc1cc(C(=O)Nc2cccc([C@H](C)Nc3cnc4cnn(C)c4n3)c2)cnc1CN1CCOCC1 [Compound 239, (S)-5-methyl-N-(3-(1-((1-methyl-1H-pyrazolo[3,4-b]pyrazin-6-yl)amino)ethyl)phenyl)-6-(morpholinomethyl) nicotinamide]
< 0.3	< 0.3	C[C@H](Nc1cnc2cnn(C)c2n1)c1cccc(NC(=O)c2ccc(S(C)(=O)=O)nc2)c1 [Compound 221, (S)-N-(3-(1-((1-methyl-1H-pyrazolo[3,4-b]pyrazin-6-yl)amino)ethyl)phenyl)-6-(methylsulfonyl)nicotinamide]
< 0.3	< 0.3	CCn1cc2ncc(N[C@@H](C)c3cc(NC(=O)c4cnc(C(F)(F)F)s4)ccc3F)nc2n1 [Compound 308, (S)-N-(3-(1-((2-ethyl-2H-pyrazolo[3,4-b]pyrazin-6-yl)amino)ethyl)-4-fluorophenyl)-2-(trifluoromethyl)thiazole-5-carboxamide]
< 0.3	< 0.3	Cc1n[nH]c2ncc(N[C@@H](C)c3cccc(NC(=O)c4cnn(C5CC5)c4)c3)nc12 [Compound 543, (S)-1-cyclopropyl-N-(3-(1-((3-methyl-1H-pyrazolo[3,4-b]pyrazin-5-yl)amino)ethyl)phenyl)-1H-pyrazole-4-carboxamide]
< 0.3	≥ 1	CCn1cc2ncc(N[C@@H](C)c3cc(NC(=O)Cc4ccc(C5CC5)nc4)ccc3C)nc2n1 [Compound 665, (S)-2-(6-cyclopropylpyridin-3-yl)-N-(3-(1-((2-ethyl-2H-pyrazolo[3,4-b]pyrazin-6-yl)amino)ethyl)-4-methylphenyl) acetamide]
